Data as given in ChEMBL document CHEMBL3988442, “University of Dundee, Small-Polar-MMV Screening Library” (2021).

Tests used:
[1] = microbe, parasite or virus in culture; settings: Mycobacterium tuberculosis, 72 h, read-out: pIC50 (converted)
[2] = microbe, parasite or virus in culture; settings: Mycobacterium tuberculosis, 96 h, read-out: pIC50 (converted)

COc1cccc(CNc2nc(C(C)C)nn2C)n1
IC50 [1]: 315 µM | IC50 [2]: > 501 µM

CCOc1cccc(CNc2nc(N(C)C)n[nH]2)c1
IC50 [1]: 57.4 µM | IC50 [2]: 34.2 µM

COc1ncccc1CNS(=O)(=O)c1cccc(Cl)c1
IC50 [1]: 230 µM | IC50 [2]: 311 µM

Cc1nn(C)c2nc(NCCSc3ncn[nH]3)sc12
IC50 [1]: > 501 µM | IC50 [2]: > 501 µM

CCOc1ccc(CNS(=O)(=O)N(C)C)cc1C
IC50 [1]: 262 µM | IC50 [2]: > 501 µM

CC(C)c1ccc(NC(=O)CN)cc1
IC50 [1]: 245 µM | IC50 [2]: 204 µM

CNC1CCN(c2cc(OC)cc(OC)c2)C1 (configuration not stated)
IC50 [1]: 309 µM | IC50 [2]: 225 µM

CC(C)c1cccc(S(=O)(=O)N(C)Cc2nnc[nH]2)c1
IC50 [1]: > 501 µM | IC50 [2]: > 501 µM

O=C(NCCn1cccc1)c1[nH]nc2c1CCCC2
IC50 [1]: 248 µM | IC50 [2]: > 501 µM

CCOCC(=O)NCC(O)c1cccc(C(F)(F)F)c1 (configuration not stated)
IC50 [1]: > 501 µM | IC50 [2]: > 501 µM

NCCNS(=O)(=O)c1cccc(I)c1
IC50 [1]: 326 µM | IC50 [2]: > 501 µM

CCOC(=O)N1CCN(C(=O)Cc2cccs2)CC1
IC50 [1]: 371 µM | IC50 [2]: > 501 µM

CNC(=O)NC(=O)CCN1CCN(S(C)(=O)=O)CC1
IC50 [1]: 245 µM | IC50 [2]: > 501 µM

Cc1oc(-c2ccc(Cl)cc2)nc1C(=O)NC1=NCCS1
IC50 [1]: > 50.1 µM | IC50 [2]: > 50.1 µM

O=C(Cc1ccc2c(c1)CCCC2)Nc1cccnc1N1CCSCC1
IC50 [1]: 12 µM | IC50 [2]: 9.97 µM

CC1CCCCN1S(=O)(=O)N1CCNCC1 (configuration not stated)
IC50 [1]: > 501 µM | IC50 [2]: > 501 µM

Cc1ccc(C(=O)Nc2cnn(C)c2)cn1
IC50 [1]: > 501 µM | IC50 [2]: > 501 µM

CSCCC(=O)N(C)Cc1cccc(-n2cccn2)c1
IC50 [1]: 269 µM | IC50 [2]: 286 µM

Cc1cccc(C)c1NC(=O)CC(CN1CCN(C)CC1)C(=O)O (configuration not stated)
IC50 [1]: 32.8 µM | IC50 [2]: > 50.1 µM

CN1CCOC[C@H]1c1nc(-c2cccnc2)c[nH]1
IC50 [1]: > 50.1 µM | IC50 [2]: > 50.1 µM

C=C(C)CN1CCN(c2ccccn2)CC1
IC50 [1]: > 501 µM | IC50 [2]: > 501 µM

CCn1nc(C)cc1C(=O)Nc1ccnc(N(C)C)n1
IC50 [1]: 96.2 µM | IC50 [2]: > 501 µM

Nc1nnc(SCc2coc(-c3ccccc3)n2)[nH]1
IC50 [1]: > 501 µM | IC50 [2]: > 501 µM

COCCNC(=O)Nc1ccc2c(c1)OC(C)(C)O2
IC50 [1]: 65.7 µM | IC50 [2]: 170 µM

Cc1ccccc1-c1nnn(CC(O)CC(F)(F)F)n1 (configuration not stated)
IC50 [1]: 102 µM | IC50 [2]: 126 µM

CN(C)[C@H]1C[C@@H](Cc2cc(-c3ccc(F)cc3)on2)C1(C)C
IC50 [1]: > 50.1 µM | IC50 [2]: > 50.1 µM

O=C(Cc1cn2ccsc2n1)NCC1CCC1
IC50 [1]: 282 µM | IC50 [2]: 179 µM

CCOC(C(=O)N(C)CC(N)=O)c1ccccc1 (configuration not stated)
IC50 [1]: > 501 µM | IC50 [2]: > 501 µM

CCc1nc(NC2CCCN(C(=O)c3cccs3)C2)c2cnn(C)c2n1 (configuration not stated)
IC50 [1]: > 50.1 µM | IC50 [2]: > 50.1 µM

O=C(c1cnsn1)N1CCCSc2ccc(F)cc21
IC50 [1]: 200 µM | IC50 [2]: 164 µM

CC(C)c1cc(C(=O)N[C@@H]2CCOC[C@H]2O)cs1
IC50 [1]: > 501 µM | IC50 [2]: > 501 µM

N[C@@H]1CC[C@H](C(=O)NCCOCc2ccccc2)C1
IC50 [1]: 226 µM | IC50 [2]: 267 µM

CCSCCOc1ccc(CO)nc1
IC50 [1]: 216 µM | IC50 [2]: > 501 µM

CCCc1nnc(NCc2ccc(C)cn2)o1
IC50 [1]: 138 µM | IC50 [2]: 212 µM

FC(F)(F)c1ccc2nc([C@H]3CCN(C4CCCCC4)C3)[nH]c2c1
IC50 [1]: 27.5 µM | IC50 [2]: 24.9 µM

CC(C)NCc1nc(-c2ccc3c(c2)OCO3)c[nH]1
IC50 [1]: > 50.1 µM | IC50 [2]: > 50.1 µM

CNc1cccnc1N1CCCC1
IC50 [1]: 22 µM | IC50 [2]: 41.3 µM

CNC(=O)NCCc1csc2ccccc12
IC50 [1]: > 50.1 µM | IC50 [2]: > 50.1 µM

CC(C)n1cnc(C2CN(C)c3ccc(C(=O)NCC4CC4)cc32)n1 (configuration not stated)
IC50 [1]: > 50.1 µM | IC50 [2]: > 50.1 µM

Cc1cccc(OCC(O)CNc2ncccc2F)c1 (configuration not stated)
IC50 [1]: 19.7 µM | IC50 [2]: 11.6 µM

Cc1ccc2oc(N3CCNCC3)nc2c1
IC50 [1]: 190 µM | IC50 [2]: > 501 µM

CCN(CC)S(=O)(=O)CC(=O)Nc1ccc(F)c(C)c1
IC50 [1]: 252 µM | IC50 [2]: 265 µM

CNC(=O)CCN1CCC(=Cc2ccccc2)CC1
IC50 [1]: 258 µM | IC50 [2]: > 501 µM

CC(=O)Nc1ccc(N2C(=O)C=CC2=O)cc1
IC50 [1]: 181 µM | IC50 [2]: > 501 µM

Cc1[nH]ncc1C(=O)NCCCSCC(C)C
IC50 [1]: 102 µM | IC50 [2]: > 501 µM

COCCCN(C)c1nc(-c2ccncc2)nc(C)c1C
IC50 [1]: 11.8 µM | IC50 [2]: 6.84 µM

CCOc1ccc2c(c1)C=C(C(=O)NC)CO2
IC50 [1]: 174 µM | IC50 [2]: 230 µM

CCCN(CCC)S(=O)(=O)N1CCC2(CC1)OCCO2
IC50 [1]: 149 µM | IC50 [2]: > 501 µM

Cc1cccc(-c2ccc(C(=O)NCCN3CCOCC3)c(=O)[nH]2)c1
IC50 [1]: > 50.1 µM | IC50 [2]: > 50.1 µM

CN(Cc1nc2ccccc2o1)C1CCCN(c2cccnn2)C1 (configuration not stated)
IC50 [1]: > 50.1 µM | IC50 [2]: > 50.1 µM

NCc1nc(-c2cccc(C(F)(F)F)c2)no1
IC50 [1]: 262 µM | IC50 [2]: 130 µM

CN(C)S(=O)(=O)N(CCO)Cc1ccc(Cl)c(Cl)c1
IC50 [1]: 216 µM | IC50 [2]: 308 µM

CCOc1ccnc(N[C@@H](Cc2ccccc2)C(N)=O)n1
IC50 [1]: > 50.1 µM | IC50 [2]: > 50.1 µM

COc1ccc(C(N)c2ccc(OC)cc2OC)cc1 (configuration not stated)
IC50 [1]: 186 µM | IC50 [2]: 291 µM

Cc1ccoc1C(=O)N1CCC(n2cc(-c3ccsc3)nn2)CC1
IC50 [1]: > 50.1 µM | IC50 [2]: > 50.1 µM

O=C(c1cnsn1)N1CCN(Cc2ccc(Cl)s2)CC1
IC50 [1]: 45.6 µM | IC50 [2]: 71 µM

CN(C)C(=O)COC(=O)c1ccc2ccccc2n1
IC50 [1]: 142 µM | IC50 [2]: > 501 µM

CCS(=O)(=O)NCCNS(=O)(=O)c1ccc(C)cc1Cl
IC50 [1]: > 501 µM | IC50 [2]: > 501 µM

O=C(c1ccc(Br)o1)N1CCN(Cc2ccco2)CC1
IC50 [1]: 97.2 µM | IC50 [2]: 92 µM

COc1cccc(C(CO)NC(=O)Cc2ccc(F)c(Br)c2)c1 (configuration not stated)
IC50 [1]: > 50.1 µM | IC50 [2]: > 50.1 µM

CN(C)S(=O)(=O)N1CCCC1c1ccsc1 (configuration not stated)
IC50 [1]: 277 µM | IC50 [2]: > 501 µM

N#CC1(C(=O)NCc2ccccc2F)CC1
IC50 [1]: > 501 µM | IC50 [2]: > 501 µM

O=C(COc1ccccc1Cl)NCC(=O)c1ccco1
IC50 [1]: 342 µM | IC50 [2]: > 501 µM

Oc1cccc(CNc2cccnc2-n2cccn2)c1
IC50 [1]: 222 µM | IC50 [2]: 74.1 µM

Cc1cc2[nH]c(O)nc2cc1NCc1ccc(F)cc1
IC50 [1]: 24.3 µM | IC50 [2]: > 50.1 µM

CCC1CN(S(C)(=O)=O)c2ccccc2O1 (configuration not stated)
IC50 [1]: 164 µM | IC50 [2]: > 501 µM

CN(Cc1nnc(C2CC2)o1)Cc1ccccc1-c1ccccc1
IC50 [1]: 24.7 µM | IC50 [2]: > 50.1 µM

CCC(C(=O)Nc1cc2c(cc1C)OCO2)N(C)C (configuration not stated)
IC50 [1]: > 501 µM | IC50 [2]: > 501 µM

NCc1ccncc1OCc1ccccc1
IC50 [1]: 134 µM | IC50 [2]: > 501 µM

O=C(NCC1CCN(C2CC2)C1)c1ccccc1F (configuration not stated)
IC50 [1]: 423 µM | IC50 [2]: 376 µM

Cc1noc(CSc2ccc(C(=O)N3CCC3)cc2)n1
IC50 [1]: > 501 µM | IC50 [2]: > 501 µM

CCc1nnsc1C(=O)N1CCc2sccc2C1
IC50 [1]: 176 µM | IC50 [2]: > 501 µM

CCN1CCN(S(=O)(=O)c2c[nH]c(C(C)C)n2)c2ccccc21
IC50 [1]: > 50.1 µM | IC50 [2]: > 50.1 µM

O=C(CCC(=O)c1ccc(F)cc1)NCc1ccco1
IC50 [1]: 219 µM | IC50 [2]: > 501 µM

NCC(=O)Nc1ccc(Cl)c(F)c1
IC50 [1]: 212 µM | IC50 [2]: 120 µM

Cc1ccc(-c2nc(CSc3nnc(N)[nH]3)no2)cc1
IC50 [1]: 107 µM | IC50 [2]: 80.2 µM
